Tests used:
Assay type in all cases: cell-based
[1] = target: T1, recombinant human ρ1 GABAC receptors (Homo sapiens, UniProt P24046); assay: GABA concentration–response curves in the presence and absence of ginkgolides, two-electrode voltage clamp in Xenopus oocytes; details: for type of antagonism: from GABA concentration–response and inhibition curves
T1 construct: expressed in transfected cells; host or cells: Xenopus laevis oocytes (cRNA injection)
Method: (§1) Human ρ1 GABAC receptor subunit cDNA was linearized using the restriction enzyme Xba 1 and transcribed using the “mMESSAGE mMACHINE” kit (Ambion Inc., Austin, TX, USA). RNA (10 ng/50 nl) was injected into the cytoplasm of defollicated oocytes using a 15–20 μm diameter tip glass micropipette Nanoject injector (Drummond Scientific Co., Broomali, PA, USA). The oocytes were incubated for 2–7 days at 18 °C in ND96 buffer with a twice-daily change of buffer.
(§2) Whole-cell currents from homomeric ρ1 GABAC receptors expressed in oocytes were recorded using two-electrode voltage clamp. Recording microelectrodes were fabricated with a micropipette puller (Narishige Scientific Instrument Lab, Tokyo, Japan) and filled with 3 M KCl solution. Oocytes were clamped at −60 mV and continuously superfused with ND96 buffer. […] […]. Co-applications of ginkgolides were interleaved with test applications of GABA alone to monitor the response throughout the experiment. […] A washout period of 3–5 min was allowed between each application.
(§3) Analysis and curve fitting was performed using GraphPad Prism v3.02 (GraphPad Software, San Diego, California, USA). […] […]. […] Unless otherwise noted, parameters were calculated from individual oocytes and then averaged.

[2] = target: T1, recombinant human ρ1 GABAC receptors; assay: Inhibition curves: ginkgolides co-applied with a fixed GABA concentration, two-electrode voltage clamp in Xenopus oocytes
Method: as §1, §2, §3

[3] = target: T1, recombinant human ρ1 GABAC receptors; assay: Use-dependence: repeated co-applications with GABA during extended incubation of ginkgolide; details: for use-dependence: repeated co-applications
Method: as §2
Fig. 5 Use-dependent effect in the antagonism of ρ1 GABAC receptors by ginkgolides. A. Examples of currents recorded during repeated co-applications of GABA and ginkgolides. […] Each application was separated by a 3-min interval. […]. […] Overall, there was no obvious evidence for use-dependent inhibition by the ginkgolides.

[4] = target: T1, recombinant human ρ1 GABAC receptors; assay: Inhibition and recovery time when ginkgolide is co-applied during the plateau of the GABA-activated current
Method: as §2
The recovery time from inhibition (measured as the 10–90% rise interval) was determined from the current responses obtained when ginkgolides A, B and C were co-applied during the plateau of the GABA-activated current (Fig. 6). […].
Fig. 6 Recovery time from ginkgolide inhibition.

[5] = target: T1, recombinant human ρ1 GABAC receptors; assay: Fit of kinetic schemes 1-4 to equilibrium GABA concentration–response curves
Excerpt: The concentration–response curves were fitted with the different mechanisms of inhibition using a least squares non-linear regression in GraphPad Prism.
The mechanism used (Fig. 7, Scheme 1) is that of [Amin and Weiss (1996)], where there are five equivalent agonist binding sites and three sites need to be occupied to activate the receptor, leading to a single open state. […] This assumes five equivalent agonist binding sites but only three are required to be occupied to activate (open) the channel pore. All subsequent kinetic schemes are derivatives of the linear scheme, by incorporating different possible mechanisms for antagonism by ginkgolides. These are drawn from the cyclic mixed-antagonism mechanism described by [Smart and Constanti (1986)]. Scheme 2 and scheme 3 both assume that ginkgolide binds to a single site in the receptor complex. […] For scheme 4, the equilibrium between the fully-liganded closed and open states is removed, which allows for the possibility that the ginkgolide binds to a separate site in the closed state compared to the open state.
Initially, a cyclic allosteric mechanism (Fig. 7, scheme 2) similar to that of [Smart and Constanti (1986)] was fit to the data. This scheme assumes a single binding site on the receptor complex that has an allosteric effect on all rate constants in the reaction mechanism. The scheme was fitted to the data allowing the agonist equilibrium constant, Ka, to be related to the equilibrium constant in the presence of ginkgolide, Ka′ by a constant ratio, R = Ka/Ka′. Similarly, the opening equilibrium constants E and E′ were related by the ratio, S = E/E′. […] As a test of the mechanism, the parameters obtained from the fit were used to predict the inhibition curves (Fig. 8D–F).
This effectively means that ginkgolide is binding at two separate sites. […] Scheme 4 is therefore functionally similar to scheme 2 with E′ having a value close to zero.

[6] = Hill coefficient of GABA curve with 10 μM antagonist
[7] = Hill coefficient of GABA curve with 30 μM antagonist
[8] = Hill coefficient of GABA curve with 100 μM antagonist
[9] = in the presence of 10 μM ginkgolide
[10] = in the presence of 30 μM ginkgolide
[11] = in the presence of 100 μM ginkgolide

T1 sequence (P24046 22-479): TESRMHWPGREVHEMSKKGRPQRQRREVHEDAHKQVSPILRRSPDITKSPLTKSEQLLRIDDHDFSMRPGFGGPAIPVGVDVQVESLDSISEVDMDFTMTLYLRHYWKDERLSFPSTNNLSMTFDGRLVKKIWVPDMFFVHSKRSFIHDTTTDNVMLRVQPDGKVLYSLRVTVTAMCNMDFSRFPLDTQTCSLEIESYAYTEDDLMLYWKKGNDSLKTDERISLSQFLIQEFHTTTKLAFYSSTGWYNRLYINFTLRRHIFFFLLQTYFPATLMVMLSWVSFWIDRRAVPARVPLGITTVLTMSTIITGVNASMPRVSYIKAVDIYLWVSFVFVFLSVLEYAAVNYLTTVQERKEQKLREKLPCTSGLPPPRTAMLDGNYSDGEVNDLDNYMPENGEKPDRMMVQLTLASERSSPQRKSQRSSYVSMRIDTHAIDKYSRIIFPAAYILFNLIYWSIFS

C[C@@H]1C(=O)O[C@H]2C[C@@]34[C@H]5C[C@@H](C(C)(C)C)[C@]36[C@@H](OC(=O)[C@@H]6O)O[C@@]4(C(=O)O5)[C@]21O [Ginkgolide A, ginkgolide A]
GABA + Ant nH [1, 6]: 1.98 ± 0.12
GABA + Ant nH [1, 7]: 2.25 ± 0.04
GABA + Ant nH [1, 8]: 2.60 ± 0.22
type of antagonism [1]: mixed antagonists
fold increase in the GABA EC50 [1, 9]: 1.9 fold
fold increase in the GABA EC50 [1, 10]: 2.3 fold
fold increase in the GABA EC50 [1, 11]: 2.5 fold
Max. GABA response ([1]; with 10 μM antagonist): 94.78 ± 0.54 %
Max. GABA response ([1]; with 30 μM antagonist): 91.44 ± 0.80 %
Max. GABA response ([1]; with 100 μM antagonist): 85.66 ± 1.34 %
nH of inhibition curve ([2]; 0.5 μM GABA): −0.99 ± 0.08
nH of inhibition curve ([2]; 1.2 μM GABA): −0.82 ± 0.07
nH of inhibition curve ([2]; 3.0 μM GABA): −0.61 ± 0.03
nH of inhibition curve ([2]; 10 μM GABA): −0.73 ± 0.04
IC50 ([2]; IC50, 0.5 μM GABA): 5.74 ± 0.17 µM
IC50 ([2]; IC50, 1.2 μM GABA): 42.3 ± 5.76 µM
IC50 ([2]; IC50, 3.0 μM GABA): 182 ± 12.6 µM
IC50 ([2]; IC50, 10 μM GABA): 874 ± 108 µM
use-dependence ([3]; 5 μM ginkgolide, 1 μM GABA): not obviously use-dependent
inhibition at 5 µM ([3]; read-out: level of inhibition): 33.2 ± 1.4%
Recovery time (10–90% rise interval) ([4]; 1 μM GABA, 5 μM ginkgolide): 48.4 ± 5.7 s
inhibition at 5 µM ([4]; 1 μM GABA, 5 μM ginkgolide): 33.8 ± 3.4%
Recovery time (10–90% rise interval) ([4]; 3 μM GABA, 5 μM ginkgolide): 14.3 ± 4.6 s
inhibition at 5 µM ([4]; 3 μM GABA, 5 μM ginkgolide): 15.9 ± 1.6%
Recovery time (10–90% rise interval) ([4]; 3 μM GABA, 50 μM ginkgolide): 18.4 ± 3.4 s
inhibition at 50 µM ([4]; 3 μM GABA, 50 μM ginkgolide): 21.4 ± 1.9%
Kd ([5]; Kb0, Scheme 2, calculated): 1.3 µM
Kd ([5]; Kb0, Scheme 3, calculated): 1.5 µM
Kd ([5]; Kb0, Scheme 4, calculated): 1.3 µM
Kd ([5]; Kb3, Scheme 2, calculated): 7.7 µM
Kd ([5]; Kb3, Scheme 3, calculated): 6790 µM
Kd ([5]; Kb3, Scheme 4, printed with ±SE): 7.7 ± 1.4 µM
Kd ([5]; Kb4 (equilibrium constant of ginkgolide, open state), Scheme 2, fitted, Ka fixed 3.2 μM, E fixed 11): 19.7 ± 3.9 µM
Kd ([5]; Kb4 (equilibrium constant of ginkgolide, open state), Scheme 3, fitted, Ka fixed 3.2 μM, E fixed 11): 611 ± 89 µM
Kd ([5]; Kb4 (equilibrium constant of ginkgolide, open state), Scheme 4, fitted, Ka fixed 3.2 μM, E fixed 11): 19.7 ± 3.9 µM
E′ (opening equilibrium constant with ginkgolide bound) ([5]; Scheme 2, calculated): 4.3
Ka′ (agonist equilibrium constant with ginkgolide bound) ([5]; Scheme 2, calculated): 5.7 µM
R (= Ka/Ka′) ([5]; Scheme 2, fitted): 0.56 ± 0.03
S (= E/E′) ([5]; Scheme 2, fitted): 2.6 ± 0.2
E′ (opening equilibrium constant with ginkgolide bound) ([5]; Scheme 3, calculated): 122
Ka′ (agonist equilibrium constant with ginkgolide bound) ([5]; Scheme 3, calculated): 53.3 µM
R (= Ka/Ka′) ([5]; Scheme 3, fitted): 0.06 ± 0.05
S (= E/E′) ([5]; Scheme 3, fitted): 0.09 ± 0.22
Ka′ (agonist equilibrium constant with ginkgolide bound) ([5]; Scheme 4, calculated): 5.7 µM
R (= Ka/Ka′) ([5]; Scheme 4, fitted): 0.55 ± 0.03

ginkgolide B
GABA + Ant nH [1, 6]: 1.97 ± 0.10
GABA + Ant nH [1, 7]: 1.83 ± 0.06
GABA + Ant nH [1, 8]: 1.61 ± 0.05
type of antagonism [1]: mixed antagonists
fold increase in the GABA EC50 [1, 9]: 3.2 fold
fold increase in the GABA EC50 [1, 10]: 4.7 fold
fold increase in the GABA EC50 [1, 11]: 7.5 fold
Max. GABA response ([1]; with 10 μM antagonist): 80.65 ± 2.18 %
Max. GABA response ([1]; with 30 μM antagonist): 75.12 ± 1.39 %
Max. GABA response ([1]; with 100 μM antagonist): 69.56 ± 2.48 %
fold more potent than ginkgolide A ([2]; 0.5 μM GABA): approximately 7.7 fold
fold more potent than ginkgolide C ([2]; 0.5 μM GABA): ~1.1 fold
nH of inhibition curve ([2]; 0.5 μM GABA): −0.87 ± 0.05
fold more potent than ginkgolide A ([2]; 1.2 μM GABA): ~18 fold
fold more potent than ginkgolide C ([2]; 1.2 μM GABA): ~2.3 fold
nH of inhibition curve ([2]; 1.2 μM GABA): −0.97 ± 0.07
fold more potent than ginkgolide A ([2]; 3 μM GABA): ~32 fold
fold more potent than ginkgolide C ([2]; 3 μM GABA): ~3.8 fold
nH of inhibition curve ([2]; 3.0 μM GABA): −0.78 ± 0.06
fold more potent than ginkgolide A ([2]; 10 μM GABA): ~6.7 fold
fold more potent than ginkgolide C ([2]; 10 μM GABA): ~4 fold
nH of inhibition curve ([2]; 10 μM GABA): −0.83 ± 0.06
bottom plateau of the inhibition curve ([2]; 10 μM GABA, five out of seven oocytes, up to 3 mM): approximately 30 % of Imax
level of inhibition ([3]; 5 μM ginkgolide, 1 μM GABA, five co-applications after 40 s preincubation): 61.3 ± 1.7%
use-dependence ([3]; 5 μM ginkgolide, 1 μM GABA): not obviously use-dependent
Inhibition (%) ([4]; 1 μM GABA, 5 μM ginkgolide): 55.5 ± 3.4%
Recovery time (10–90% rise interval) ([4]; 1 μM GABA, 5 μM ginkgolide): 42.8 ± 8.6 s
Inhibition (%) ([4]; 3 μM GABA, 5 μM ginkgolide): 35.2 ± 6.8%
Recovery time (10–90% rise interval) ([4]; 3 μM GABA, 5 μM ginkgolide): 21.3 ± 4.4 s
Inhibition (%) ([4]; 3 μM GABA, 50 μM ginkgolide): 54.6 ± 7.5%
Recovery time (10–90% rise interval) ([4]; 3 μM GABA, 50 μM ginkgolide): 29.4 ± 3.8 s
E′ (opening equilibrium constant with ginkgolide bound) ([5]; Scheme 2, calculated): 1.3
Ka′ (agonist equilibrium constant with ginkgolide bound) ([5]; Scheme 2, calculated): 8.3 µM
R (= Ka/Ka′) ([5]; Scheme 2, fitted): 0.39 ± 0.02
S (= E/E′) ([5]; Scheme 2, fitted): 8.6 ± 0.6
E′ (opening equilibrium constant with ginkgolide bound) ([5]; Scheme 3, calculated): 1 × 10^−9
Ka′ (agonist equilibrium constant with ginkgolide bound) ([5]; Scheme 3, calculated): 12.9 µM
R (= Ka/Ka′) ([5]; Scheme 3, fitted): 0.25 ± 0.01
S (= E/E′) ([5]; Scheme 3, fitted): 1.0 × 10^10 ± 1.4 × 10^16
Ka′ (agonist equilibrium constant with ginkgolide bound) ([5]; Scheme 4, calculated): 8.3 µM
R (= Ka/Ka′) ([5]; Scheme 4, fitted): 0.39 ± 0.02

Source: publication PMC3465557, “Mixed antagonistic effects of the ginkgolides at recombinant human ρ1 GABAC receptors” (Neuropharmacology, 2012)
